Patent US9340493B2, “Hydroxamic acid derivatives useful as antibacterial agents” (Pfizer Inc., priority 2008, dated 2016)
In brackets after ≈: the same amount, converted by molar mass.

Assays:
[1] = biological target: T1, Pseudomonas aeruginosa LpxC enzyme (Pseudomonas aeruginosa, UniProt P47205); test: IC50 assay, LpxC enzyme from P. aeruginosa; type: biochemical; settings: 0.5 nM enzyme, 25° C., pH 8.0, 20 min; ** = average of 2-8 assays
T1 construct: made in house; host or cells: E. coli
T1 sequence (P47205 1-303): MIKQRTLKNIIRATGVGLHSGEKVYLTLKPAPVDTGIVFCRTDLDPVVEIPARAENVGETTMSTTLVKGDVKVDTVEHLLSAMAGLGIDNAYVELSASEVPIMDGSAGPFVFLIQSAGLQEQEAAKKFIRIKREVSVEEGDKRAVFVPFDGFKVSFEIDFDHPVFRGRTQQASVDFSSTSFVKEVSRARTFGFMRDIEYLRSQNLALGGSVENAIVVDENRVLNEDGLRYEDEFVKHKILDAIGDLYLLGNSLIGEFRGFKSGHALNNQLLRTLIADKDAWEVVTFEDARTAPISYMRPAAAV
Outline: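 P. aeruginosa LpxC (0.5 nM, expressed in E. coli) reacted with 0.5 uM ³H-acetyl-labelled UDP-3-O-(R-3-hydroxydecanoyl)-GlcNAc in 50 mM sodium phosphate pH 8.0 with 1 mg/ml BSA at 25 °C for 20 min. Charcoal stopped the reaction, and filtrate radioactivity was counted by scintillation after no-enzyme background subtraction.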

P. aeruginosa PAO280 = test: MIC determination, P. aeruginosa PAO280; type: cell-based; settings: Pseudomonas aeruginosa, PAO280, read-out: MIC (ug/mL) P. aeruginosa PAO280
Outline: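 Broth dilution MIC per CLSI M7-A7/M100-S18 guidelines. Strain PAO280 lacks efflux pumps MexAB-oprM, MexXY and MexZ.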

P. aeruginosa UI-18 = test: MIC determination, P. aeruginosa UI-18; type: cell-based; settings: Pseudomonas aeruginosa, UI18; wild-type; * = arithmetic mean of 2-6 MIC determinations; read-out: MIC (ug/mL) P. aeruginosa UI-18
Outline: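 MIC by broth dilution following CLSI M7-A7 and M100-S18 guidelines, tested against wild-type P. aeruginosa UI-18.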

[2] = system: Acinetobacter baumanii/haemolyticus; test: MIC determination, A. baumanii/haemolyticus; type: cell-based; settings: Acinetobacter baumannii; multidrug-resistant clinical isolate; * = arithmetic mean of 2-6 MIC determinations; read-out: MIC (ug/mL) A. baumanii/haemolyticus
Outline: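 MICs were determined by CLSI broth dilution (M7-A7, M100-S18) against a multidrug-resistant clinical isolate of Acinetobacter baumanii/haemolyticus.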

Enterobacter aerogenes = test: MIC determination, E. aerogenes; type: cell-based; settings: Klebsiella aerogenes; quinolone-resistant, ESBL-expressing clinical isolate; * = arithmetic mean of 2-6 MIC determinations; read-out: MIC (ug/mL) E. aerogenes
Outline: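 Clinical E. aerogenes isolate, quinolone-resistant and ESBL-expressing. MIC measured in vitro by dilution testing according to CLSI guidelines (M7-A7, M100-S18).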

Escherichia coli EC-1 = test: MIC determination, E. coli EC-1; type: cell-based; settings: EC1, EC-1: VOGEL, * = arithmetic mean of 2-6 MIC determinations, read-out: MIC (ug/mL) E. coli EC-1
Outline: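 Minimum inhibitory concentration against Escherichia coli EC-1 was determined in vitro by dilution susceptibility testing under CLSI M7-A7 and M100-S18 guidelines.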

Klebsiella pneumoniae = test: MIC determination, K. pneumoniae; type: cell-based; settings: ciprofloxacin-resistant, ESBL-expressing clinical isolate, * = arithmetic mean of 2-6 MIC determinations, read-out: MIC (ug/mL) K. pneumoniae
Outline: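 MIC determined by broth dilution per CLSI M7-A7 and M100-S18 guidelines. Strain: ciprofloxacin-resistant, ESBL-expressing clinical isolate of K. pneumoniae.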

[3] = system: Staphylococcus aureus ATCC 29213; test: MIC determination, S. aureus ATCC 29213; type: cell-based; settings: ATCC29213, CLSI quality control reference strain, * = arithmetic mean of 2-6 MIC determinations, read-out: MIC (ug/mL) S. aureus ATCC 29213
Outline: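 MIC was measured by dilution susceptibility testing following CLSI guidelines (M7-A7; M100-S18). The test organism is the CLSI quality-control reference strain.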

Serratia marcescens = test: MIC determination, S. marcescens; type: cell-based; settings: multidrug-resistant clinical isolate, * = arithmetic mean of 2-6 MIC determinations, read-out: MIC (ug/mL) S. marcescens
Experimental: MIC determinations: The in vitro antibacterial activity of compounds described in the Examples was evaluated by minimum inhibitory concentration (MIC) testing according to Clinical and Laboratory Standards Institute (CLSI, formerly NCCLS) guidelines. See: Clinical and Laboratory Standards Institute. Methods for Dilution Antimicrobial Susceptibility Tests for Bacteria that Grow Aerobically; Approved Standard-Seventh Edition. CLSI document M7-A7 [ISBN 1-56238-587-9]. Clinical and Laboratory Standards Institute, 940 West Valley Road, Suite 1400, Wayne, Pa. 19087-1898 USA, 2006; also Clinical and Laboratory Standards Institute. Performance Standards for Antimicrobial Susceptibility Testing; Eighteenth Informational Supplement. CLSI document M100-S18 [ISBN1-56238-653-0]. Clinical and Laboratory Standards Institute.
The following bacterial strains were used:
Serratia marcescens: Multidrug-resistant clinical isolate.

Compound	IC50 [1] [µM]	MIC (P. aeruginosa PAO280) [µg/mL]	MIC (P. aeruginosa UI-18) [µg/mL]	MIC [2] [µg/mL]	MIC (Enterobacter aerogenes) [µg/mL]	MIC (Escherichia coli EC-1) [µg/mL]	MIC (Klebsiella pneumoniae) [µg/mL]	MIC [3] [µg/mL]	MIC (Serratia marcescens) [µg/mL]
CC[C@H](O)[C@](C)(OCc1ccc(-c2ccccc2)cc1)C(=O)NO [Example 1, (2S,3S)-2-(biphenyl-4-ylmethoxy)-N,3-dihydroxy-2-methylpentanamide]	0.00844	3 (≈ 9.11 µM)	> 64	> 64	> 64	> 64	> 64	> 64	> 64
C[C@H](O)[C@](C)(OCc1ccc(-c2ccccc2)cc1)C(=O)NO [Example 2a, (2S,3S)-2-(biphenyl-4-ylmethoxy)-N,3-dihydroxy-2-methylbutanamide]	0.00299	0.5 (≈ 1.59 µM)	32 (≈ 101 µM)	> 64	> 64	> 64	> 64	> 64	> 64
C[C@@H](O)[C@](C)(OCc1ccc(-c2ccccc2)cc1)C(=O)NO [Example 2b, (2S,3R)-2-(biphenyl-4-ylmethoxy)-N,3-dihydroxy-2-methylbutanamide]	0.00435	0.75 (≈ 2.38 µM)	64 (≈ 203 µM)	> 64	> 64	> 64	> 64	> 64	> 64
CC(C)[C@H](O)[C@](C)(OCc1ccc(-c2ccccc2)cc1)C(=O)NO [Example 3, (2S,3S)-2-(biphenyl-4-ylmethoxy)-N,3-dihydroxy-2,4-dimethylpentanamide]	0.0716	32 (≈ 93.2 µM)	> 64	> 64	> 64	> 64	> 64	> 64	> 64
CCCC[C@H](O)[C@](C)(OCc1ccc(-c2ccccc2)cc1)C(=O)NO [Example 5, (2S,3S)-2-(biphenyl-4-ylmethoxy)-N,3-dihydroxy-2-methylheptanamide]	0.0878	16 (≈ 44.8 µM)	> 64	> 64	> 64	> 64	> 64	64 (≈ 179 µM)	> 64
CC(C)C[C@H](O)[C@](C)(OCc1ccc(-c2ccccc2)cc1)C(=O)NO [Example 6, (2S,3S)-2-(biphenyl-4-ylmethoxy)-N,3-dihydroxy-2,5-dimethylhexanamide]	0.16	64 (≈ 179 µM)	> 64	> 64	> 64	> 64	> 64	64 (≈ 179 µM)	> 64
C[C@@](OCc1ccc(-c2ccccc2)cc1)(C(=O)NO)[C@@H](O)CC(F)(F)F [Example 7, (2S,3S)-2-(biphenyl-4-ylmethoxy)-N,3-dihydroxy-2-methyl-5,5,5-trifluoropentanamide]	0.00953	2 (≈ 5.22 µM)	> 64	> 64	> 64	> 64	> 64	64 (≈ 167 µM)	> 64
CCOCC[C@H](O)[C@](C)(OCc1ccc(-c2ccccc2)cc1)C(=O)NO [Example 8, (2S,3S)-2-(biphenyl-4-ylmethoxy)-5-ethoxy-N,3-dihydroxy-2-methylpentanamide]	0.0284	8 (≈ 21.4 µM)	> 64	> 64	> 64	> 64	> 64	> 64	> 64
C[C@@](OCc1ccc(-c2ccccc2)cc1)(C(=O)NO)[C@@H](O)c1c[nH]cn1 [Example 9, (2S,3S)-2-(biphenyl-4-ylmethoxy)-N,3-dihydroxy-3-(1H-imidazol-4-yl)-2-methylpropanamide]	0.00084	0.125 (≈ 0.34 µM)	8 (≈ 21.8 µM)	> 64	> 64	> 64	> 64	> 64	> 64
COCc1cc(CNC(=O)C(C)(OCc2ccc(-c3ccccc3)cc2)C(=O)NO)no1 (stereo not drawn) [Example 85, 2-(biphenyl-4-ylmethoxy)-N-hydroxy-N′-{[5-(methoxymethyl)isoxazol-3-yl]methyl}-2-methylmalonamide]	0.00159	0.125 (≈ 0.284 µM)	8 (≈ 18.2 µM)	64 (≈ 146 µM)	> 64	16 (≈ 36.4 µM)	32 (≈ 72.8 µM)	64 (≈ 146 µM)	–
Cc1cc(-c2ccc(COC(C)(C(=O)NO)C(=O)NCc3cc(C)on3)cc2)ccn1 (stereo not drawn) [Example 86, N-hydroxy-2-methyl-N′-[(5-methylisoxazol-3-yl)methyl]-2-{[4-(2-methylpyridin-4-yl)benzyl]oxy}malonamide]	0.00681	0.25 (≈ 0.589 µM)	16 (≈ 37.7 µM)	> 64	> 64	> 64	> 64	> 64	–
Cc1ccnc(-c2ccc(COC(C)(C(=O)NO)C(=O)NCc3cc(C)on3)cc2)c1 (stereo not drawn) [Example 87, N-hydroxy-2-methyl-N′-[(5-methylisoxazol-3-yl)methyl]-2-{[4-(4-methylpyridin-2-yl)benzyl]oxy}malonamide]	0.0023	0.25 (≈ 0.589 µM)	32 (≈ 75.4 µM)	> 64	> 64	> 64	> 64	> 64	–
Cc1cc(CNC(=O)C(C)(OCc2ccc(-c3ccc(F)cn3)cc2)C(=O)NO)no1 (stereo not drawn) [Example 88, 2-{[4-(5-fluoropyridin-2-yl)benzyl]oxy}-N-hydroxy-2-methyl-N′-[(5-methylisoxazol-3-yl)methyl]malonamide]	0.00698	0.5 (≈ 1.17 µM)	64 (≈ 149 µM)	> 64	> 64	> 64	> 64	> 64	–
Cc1cccc(-c2ccc(COC(C)(C(=O)NO)C(=O)NCc3cc(C)on3)cc2)n1 (stereo not drawn) [Example 89, N-hydroxy-2-methyl-N′-[(5-methylisoxazol-3-yl)methyl]-2-{[4-(6-methylpyridin-2-yl)benzyl]oxy}malonamide]	0.0135	1 (≈ 2.36 µM)	> 64	> 64	> 64	> 64	> 64	> 64	–
Cc1cc(CNC(=O)C(C)(OCc2ccc(-c3cnccn3)cc2)C(=O)NO)no1 (stereo not drawn) [Example 90, N-hydroxy-2-methyl-N′-[(5-methylisoxazol-3-yl)methyl]-2-[(4-pyrazin-2-ylbenzyl)oxy]malonamide]	0.147	4 (≈ 9.72 µM)	> 64	> 64	> 64	> 64	> 64	> 64	–
